System: Leishmania tropica
Experiment: Growth inhibition of multidrug-resistant Leishmania tropica overexpressing P-glycoprotein-like transporter at 60 uM
Type: functional
Design: scale not given: the % may be the effect or the level left

## CC(=O)OC[C@]12[C@H](OC(C)=O)C(=O)[C@@H]3[C@@H](OC(C)=O)[C@]1(O[C@@]3(C)COC(C)=O)[C@@](C)(O)[C@@H](OC(C)=O)[C@H](OC(C)=O)[C@@H]2OC(C)=O
  Activity: 28%
